According to the NIST ThermoML archive (doi:10.1016/j.jct.2010.10.018):
Numbers after ± are expanded uncertainties.

Assay: xn = mol fraction of the nth substance listed
Conditions: 101 kPa, Liquid, Vibrating tube method

CC(C)(C)O [2-methylpropan-2-ol] + O
Conditions	mass density [kg/m3]
274.15 K, x1 = 0.00089	999.21 ± 0.11
274.15 K, x1 = 0.00146	998.81 ± 0.11
274.15 K, x1 = 0.00269	997.91 ± 0.11
274.15 K, x1 = 0.00403	997.02 ± 0.11
274.15 K, x1 = 0.00513	996.3 ± 0.11
274.15 K, x1 = 0.00761	994.82 ± 0.11
274.15 K, x1 = 0.01051	993.19 ± 0.11
274.15 K, x1 = 0.01405	991.42 ± 0.11
274.15 K, x1 = 0.01793	989.78 ± 0.11
274.15 K, x1 = 0.02241	988.11 ± 0.11
274.15 K, x1 = 0.03005	985.71 ± 0.11
274.15 K, x1 = 0.04242	982.79 ± 0.11
274.15 K, x1 = 0.08929	966.2 ± 0.12
275.15 K, x1 = 0.00089	999.25 ± 0.11
275.15 K, x1 = 0.00146	998.85 ± 0.11
275.15 K, x1 = 0.00269	997.96 ± 0.11
275.15 K, x1 = 0.00403	997.06 ± 0.11
275.15 K, x1 = 0.00513	996.34 ± 0.11
275.15 K, x1 = 0.00761	994.84 ± 0.11
275.15 K, x1 = 0.01051	993.21 ± 0.11
275.15 K, x1 = 0.01405	991.44 ± 0.11
275.15 K, x1 = 0.01793	989.78 ± 0.11
275.15 K, x1 = 0.02241	988.08 ± 0.11
275.15 K, x1 = 0.03005	985.63 ± 0.11
275.15 K, x1 = 0.04242	982.59 ± 0.11
275.15 K, x1 = 0.08929	965.24 ± 0.12
276.15 K, x1 = 0.00089	999.28 ± 0.11
276.15 K, x1 = 0.00146	998.89 ± 0.11
276.15 K, x1 = 0.00269	997.99 ± 0.11
276.15 K, x1 = 0.00403	997.09 ± 0.11
276.15 K, x1 = 0.00513	996.36 ± 0.11
276.15 K, x1 = 0.00761	994.86 ± 0.11
276.15 K, x1 = 0.01051	993.23 ± 0.11
276.15 K, x1 = 0.01405	991.43 ± 0.11
276.15 K, x1 = 0.01793	989.76 ± 0.11
276.15 K, x1 = 0.02241	988.02 ± 0.11
276.15 K, x1 = 0.03005	985.53 ± 0.11
276.15 K, x1 = 0.04242	982.37 ± 0.11
276.15 K, x1 = 0.08929	964.42 ± 0.12
277.15 K, x1 = 0.00089	999.29 ± 0.12
277.15 K, x1 = 0.00146	998.9 ± 0.12
277.15 K, x1 = 0.00269	998.01 ± 0.11
277.15 K, x1 = 0.00403	997.1 ± 0.11
277.15 K, x1 = 0.00513	996.37 ± 0.11
277.15 K, x1 = 0.00761	994.85 ± 0.11
277.15 K, x1 = 0.01405	991.42 ± 0.11
278.15 K, x1 = 0.00089	999.28 ± 0.11
278.15 K, x1 = 0.00146	998.89 ± 0.11
278.15 K, x1 = 0.00269	998.01 ± 0.11
278.15 K, x1 = 0.00403	997.1 ± 0.11
278.15 K, x1 = 0.00513	996.37 ± 0.11
278.15 K, x1 = 0.00761	994.85 ± 0.11
278.15 K, x1 = 0.01051	993.21 ± 0.11
278.15 K, x1 = 0.01405	991.41 ± 0.11
278.15 K, x1 = 0.01793	989.68 ± 0.11
278.15 K, x1 = 0.02241	987.87 ± 0.11
278.15 K, x1 = 0.0248	986.88 ± 0.11
278.15 K, x1 = 0.03005	985.29 ± 0.11
278.15 K, x1 = 0.03494	983.86 ± 0.11
278.15 K, x1 = 0.04241	981.87 ± 0.11
278.15 K, x1 = 0.04242	981.89 ± 0.11
278.15 K, x1 = 0.05218	979.23 ± 0.11
278.15 K, x1 = 0.05887	977 ± 0.11
278.15 K, x1 = 0.06973	972.66 ± 0.11
278.15 K, x1 = 0.08929	962.87 ± 0.12
278.15 K, x1 = 0.1125	951.21 ± 0.12
278.15 K, x1 = 0.1566	929.91 ± 0.13
278.15 K, x1 = 0.208	910.57 ± 0.13
278.15 K, x1 = 0.2408	899.29 ± 0.13
278.15 K, x1 = 0.3023	882.17 ± 0.13
278.15 K, x1 = 0.3451	872.16 ± 0.14
278.15 K, x1 = 0.4045	860.22 ± 0.14
278.15 K, x1 = 0.4225	857.05 ± 0.14
278.15 K, x1 = 0.4653	849.9 ± 0.14
278.15 K, x1 = 0.5344	839.61 ± 0.15
278.15 K, x1 = 0.6029	831.08 ± 0.15
278.15 K, x1 = 0.6909	821.72 ± 0.15
278.15 K, x1 = 0.726	818.36 ± 0.16
278.15 K, x1 = 0.7999	812.56 ± 0.16
279.15 K, x1 = 0.00089	999.26 ± 0.11
279.15 K, x1 = 0.00146	998.87 ± 0.11
279.15 K, x1 = 0.00269	997.99 ± 0.11
279.15 K, x1 = 0.00403	997.08 ± 0.11
279.15 K, x1 = 0.00513	996.35 ± 0.11
279.15 K, x1 = 0.00761	994.79 ± 0.11
279.15 K, x1 = 0.01405	991.37 ± 0.11
280.15 K, x1 = 0.00089	999.22 ± 0.11
280.15 K, x1 = 0.00146	998.83 ± 0.11
280.15 K, x1 = 0.00269	997.95 ± 0.11
280.15 K, x1 = 0.00403	997.04 ± 0.11
280.15 K, x1 = 0.00513	996.31 ± 0.11
280.15 K, x1 = 0.00761	994.76 ± 0.11
280.15 K, x1 = 0.01051	993.13 ± 0.11
280.15 K, x1 = 0.01405	991.32 ± 0.11
280.15 K, x1 = 0.01793	989.57 ± 0.11
280.15 K, x1 = 0.02241	987.69 ± 0.11
280.15 K, x1 = 0.03005	985 ± 0.11
280.15 K, x1 = 0.04242	981.35 ± 0.11
280.15 K, x1 = 0.08929	961.26 ± 0.12
281.15 K, x1 = 0.00089	999.17 ± 0.11
281.15 K, x1 = 0.00146	998.78 ± 0.11
281.15 K, x1 = 0.00269	997.9 ± 0.11
281.15 K, x1 = 0.00403	996.99 ± 0.11
281.15 K, x1 = 0.00513	996.26 ± 0.11
281.15 K, x1 = 0.00761	994.7 ± 0.11
281.15 K, x1 = 0.01405	991.25 ± 0.11
282.15 K, x1 = 0.00089	999.1 ± 0.11
282.15 K, x1 = 0.00146	998.72 ± 0.11
282.15 K, x1 = 0.00269	997.84 ± 0.11
282.15 K, x1 = 0.00403	996.93 ± 0.11
282.15 K, x1 = 0.00513	996.19 ± 0.11
282.15 K, x1 = 0.00761	994.63 ± 0.11
282.15 K, x1 = 0.01405	991.16 ± 0.11
283.15 K, x1 = 0.00089	999.02 ± 0.11
283.15 K, x1 = 0.00146	998.63 ± 0.11
283.15 K, x1 = 0.00269	997.76 ± 0.11
283.15 K, x1 = 0.00403	996.85 ± 0.11
283.15 K, x1 = 0.00513	996.12 ± 0.11
283.15 K, x1 = 0.00761	994.57 ± 0.11
283.15 K, x1 = 0.01405	991.06 ± 0.11
288.15 K, x1 = 0.00089	998.43 ± 0.11
288.15 K, x1 = 0.00146	998.04 ± 0.11
288.15 K, x1 = 0.00269	997.17 ± 0.11
288.15 K, x1 = 0.00403	996.26 ± 0.11
288.15 K, x1 = 0.00513	995.52 ± 0.11
288.15 K, x1 = 0.00761	993.96 ± 0.11
288.15 K, x1 = 0.01405	990.35 ± 0.11
288.15 K, x1 = 0.0248	985.26 ± 0.11
288.15 K, x1 = 0.03494	981.48 ± 0.11
288.15 K, x1 = 0.04241	978.77 ± 0.11
288.15 K, x1 = 0.05218	974.85 ± 0.11
288.15 K, x1 = 0.05887	971.81 ± 0.11
288.15 K, x1 = 0.06973	966.34 ± 0.12
288.15 K, x1 = 0.1125	943.7 ± 0.12
288.15 K, x1 = 0.1566	922.09 ± 0.12
288.15 K, x1 = 0.208	902.66 ± 0.13
288.15 K, x1 = 0.2408	891.25 ± 0.13
288.15 K, x1 = 0.3023	874 ± 0.14
288.15 K, x1 = 0.3451	863.89 ± 0.14
288.15 K, x1 = 0.4045	851.78 ± 0.14
288.15 K, x1 = 0.4225	848.63 ± 0.14
288.15 K, x1 = 0.4653	841.48 ± 0.14
288.15 K, x1 = 0.5344	830.98 ± 0.15
288.15 K, x1 = 0.6029	822.27 ± 0.15
288.15 K, x1 = 0.6909	812.77 ± 0.16
288.15 K, x1 = 0.726	809.38 ± 0.16
288.15 K, x1 = 0.7999	803.46 ± 0.16
288.15 K, x1 = 0.8711	797.8 ± 0.17
288.15 K, x1 = 0.9183	794.66 ± 0.17
298.15 K, x1 = 0.00089	996.39 ± 0.11
298.15 K, x1 = 0.00146	996 ± 0.11
298.15 K, x1 = 0.00269	995.11 ± 0.11
298.15 K, x1 = 0.00403	994.19 ± 0.11
298.15 K, x1 = 0.00513	993.44 ± 0.11
298.15 K, x1 = 0.00761	991.84 ± 0.11
298.15 K, x1 = 0.01405	988.08 ± 0.11
298.15 K, x1 = 0.0248	982.45 ± 0.11
298.15 K, x1 = 0.03494	977.97 ± 0.11
298.15 K, x1 = 0.04241	974.54 ± 0.11
298.15 K, x1 = 0.05218	969.58 ± 0.11
298.15 K, x1 = 0.05887	965.94 ± 0.12
298.15 K, x1 = 0.06973	959.94 ± 0.12
298.15 K, x1 = 0.1125	936.18 ± 0.12
298.15 K, x1 = 0.1566	914.18 ± 0.13
298.15 K, x1 = 0.208	894.55 ± 0.13
298.15 K, x1 = 0.2408	883.06 ± 0.13
298.15 K, x1 = 0.3023	865.6 ± 0.14
298.15 K, x1 = 0.3451	855.48 ± 0.14
298.15 K, x1 = 0.4045	843.11 ± 0.14
298.15 K, x1 = 0.4225	839.94 ± 0.15
298.15 K, x1 = 0.4653	832.83 ± 0.15
298.15 K, x1 = 0.5344	822.05 ± 0.15
